For 55 compounds, ED50 results are on record in patent publication US4338451A, “5-Hydroxymethyl oxazolidinones” (Delalande S.A., priority 1977, dated 1982).

Format in all cases: in vivo
The test system of experiment [1] is generalized trembling caused by an interperitoneal injection (200 mg/kg) of dl-5-hydroxytryptophane. Kind of experiment: Test A: potentiation in mice of generalized trembling caused by dl-5-hydroxytryptophane. The following applies: Mus musculus, po, dl-5-hydroxytryptophane 200 mg/kg intraperitoneal, read-out: Test A ED 50. On the procedure: Potentiation in mice of generalized trembling caused by an interperitoneal injection (200 mg/kg) of dl-5-hydroxytryptophane, following the protocol described by C. GOURET and G. RAYNAUD in J. Pharmacol. (Paris), (1974) 5, 231.

In experiment [2] the test system is ptosis observed one hour after an intravenous injection (2 mg/kg) of reserpine. Kind of experiment: Test B: antagonism of the ptosis caused by reserpine in mice. Conditions: Mus musculus, po, 1 h, p.o., reserpine 2 mg/kg intravenous, read-out: Test B ED 50. On the procedure: Antagonism with respect to the ptosis observed one hour after an intravenous injection (2 mg/kg) of reserpine given to mice, following the protocol described by C.

Experiment [3] relates to pontogeniculo-occipital points (P.G.O.) caused by an intravenous injection (0.5 mg/kg) of reserpine. Kind of experiment: Test C: reduction in the density of pontogeniculo-occipital points (P.G.O.) caused by reserpine in cats. Conditions: Felis catus, ip, reserpine 0.5 mg/kg intravenous, read-out: Test C ED 50. On the procedure: Reduction in the density of pontogeniculo-occipital points (P.G.O.) caused by an intravenous injection (0.5 mg/kg) of reserpine given to cats, following the protocol described by A. COSTON and C. GOURET in J. Pharmacol. (Paris) (1976), 7, 409.

With `O=C1OC(CO)CN1c1ccc(OCCN2CCOCC2)cc1` (centres unmarked) [750 601], the ED50 was 70 mg/kg in experiment [1], 8 mg/kg in experiment [2] and 31 mg/kg in experiment [3].
`COCOc1ccc(N2CC(CO)OC2=O)cc1` (centres unmarked) [760 904]: the values for the ED50 in experiment [1], in experiment [2] and in experiment [3] were 50 mg/kg, 50 mg/kg and 8.5 mg/kg, respectively.
On to `CC(COc1ccc(N2CC(CO)OC2=O)cc1)=NO` (centres unmarked) [770 126, oxime of 3-(p-acetylmethyloxyphenyl) 5-hydroxymethyl 2-oxazolidinone], for which the values for the ED50 in experiment [1], in experiment [2] and in experiment [3] were 8 mg/kg, 11 mg/kg and 16.5 mg/kg, respectively.
In the same order, the values of `O=C1OC(CO)CN1c1ccc(C(F)(F)F)cc1` (centres unmarked) [770 152, 5-hydroxymethyl 3-p-trifluoromethylphenyl 2-oxazolidinone] are 20 mg/kg, 25 mg/kg and 15 mg/kg.
With `CC(C)C(=O)COc1ccc(N2CC(CO)OC2=O)cc1` (centres unmarked) [770 154], the values for the ED50 in experiment [1], in experiment [2] and in experiment [3] were 50 mg/kg, 50 mg/kg and 20 mg/kg, respectively.
Regarding `CN(C)c1cccc(N2CC(CO)OC2=O)c1` (centres unmarked) [770 155], the ED50 stood at 50 mg/kg in experiment [1], 22.5 mg/kg in experiment [2] and 35 mg/kg in experiment [3].
Take `CCCCCSc1ccc(N2CC(CO)OC2=O)cc1` (centres unmarked) [770 180]: the results for the ED50 in experiment [1], in experiment [2] and in experiment [3] were 35 mg/kg, 45 mg/kg and 45 mg/kg, respectively.
As for `C=CCCCOc1ccc(N2CC(CO)OC2=O)cc1` (centres unmarked) [770 196], the values for the ED50 in experiment [1], in experiment [2] and in experiment [3] were 20 mg/kg, 15 mg/kg and 16 mg/kg, respectively.
The like results for `O=C1OC(CO)CN1c1ccc(OCc2cccnc2)cc1` (centres unmarked) [770 221] were, in that order, 11.8 mg/kg, 3.12 mg/kg and 15 mg/kg.
On to `CC(=O)COc1cccc(N2CC(CO)OC2=O)c1` (centres unmarked) [770 230], for which the ED50 in experiment [2] worked out at 6.25 mg/kg; in experiment [3], 16 mg/kg.
Consider `N#CCOc1cccc(N2CC(CO)OC2=O)c1` (centres unmarked) [770 231, 5-hydroxymethyl 3-m-cyanomethyloxyphenyl 2-oxazolidinone], for which the results for the ED50 in experiment [1], in experiment [2] and in experiment [3] were 40 mg/kg, 50 mg/kg and 14 mg/kg, respectively.
As for `O=C1OC(CO)CN1c1ccc(OCc2ccc(Cl)c(Cl)c2)cc1` (centres unmarked) [770 268], the values for the ED50 in experiment [1] and in experiment [2] were 7 mg/kg and 8.5 mg/kg, respectively.
For `O=C1OC(CO)CN1c1ccc(OCc2ccccn2)cc1` (centres unmarked) [770 298], the results for the ED50 in experiment [1] and in experiment [2] were 55 mg/kg and 12.5 mg/kg, respectively.
Take `O=C1OC(CO)CN1c1ccc(OCc2ccncc2)cc1` (centres unmarked) [770 299]: the ED50 in experiment [1] is 20 mg/kg; in experiment [2], 12.5 mg/kg.
As to `N#Cc1ccccc1COc1ccc(N2CC(CO)OC2=O)cc1` (centres unmarked) [770 318], the ED50 amounted to 25 mg/kg in experiment [1] and 16 mg/kg in experiment [2].
Turning to `CCCCCNc1ccc(N2CC(CO)OC2=O)cc1` (centres unmarked) [770 328, 3-p-n pentylaminophenyl 5-hydroxymethyl 2-oxazolidinone], the results for the ED50 in experiment [1] and in experiment [2] were 25 mg/kg and 35 mg/kg, respectively.
Regarding `O=C1OC(CO)CN1c1ccc(OCc2ccc(Cl)cc2Cl)cc1` (centres unmarked) [770 354], the ED50 in experiment [1] is 25 mg/kg; in experiment [2], 30 mg/kg; in experiment [3], 30 mg/kg.
`CCC(=O)c1ccc(N2CC(CO)OC2=O)cc1` (centres unmarked) [770 365]: the values for the ED50 in experiment [1] and in experiment [2] were 29 mg/kg and 25 mg/kg, respectively.
For `O=C1OC(CO)CN1c1ccc(OCC2CC2)cc1` (centres unmarked) [770 388], the ED50 stood at 9 mg/kg in experiment [1], 12.5 mg/kg in experiment [2] and 4.5 mg/kg in experiment [3].
As for `O=C1OC(CO)CN1c1ccc(OCc2cc(Cl)cc(Cl)c2)cc1` (centres unmarked) [770 416], the ED50 in experiment [1] came out at 6.2 mg/kg; in experiment [2], 10 mg/kg; in experiment [3], 3 mg/kg.
As for `CCCC(=O)c1ccc(N2CC(CO)OC2=O)cc1` (centres unmarked) [770 423], the figures for the ED50 in experiment [1], in experiment [2] and in experiment [3] were 35 mg/kg, 25 mg/kg and 5 mg/kg, respectively.
Take `O=C1OC(CO)CN1c1ccc(OCC2=CCCC2)cc1` (centres unmarked) [770 466]: the values for the ED50 in experiment [1], in experiment [2] and in experiment [3] were 9.6 mg/kg, 6.2 mg/kg and 9 mg/kg, respectively.
For the compound `O=C1OC(CO)CN1c1ccc(OCC2CCCC2)cc1` (centres unmarked) [770 467], the ED50 in experiment [1] was found to be 2.8 mg/kg; in experiment [2], 1.2 mg/kg; in experiment [3] it was 3 mg/kg.
In the case of `CC(=O)CSc1ccc(N2CC(CO)OC2=O)cc1` (centres unmarked) [770 501, 3-(p-acetylmethylthiophenyl) 5-hydroxymethyl 2-oxazolidinone], the ED50 in experiment [1] amounted to 22 mg/kg; in experiment [2], 25 mg/kg.
As to `CC(=O)Nc1ccc(COc2ccc(N3CC(CO)OC3=O)cc2)cc1` (centres unmarked) [770 569], the ED50 in experiment [1] was 5 mg/kg; in experiment [2], 2.5 mg/kg; in experiment [3] it was 6 mg/kg.
In the case of `O=C1OC(CO)CN1c1ccc(OCc2ccc(F)c(Cl)c2)cc1` (centres unmarked) [770 572], the ED50 in experiment [1] was 6.3 mg/kg; in experiment [2], 3.12 mg/kg; in experiment [3] it was 8.5 mg/kg.
As to `O=C1OC(CO)CN1c1ccc(OCc2ccc(Cl)c([N+](=O)[O-])c2)cc1` (centres unmarked) [770 672], the ED50 turned out to be 25 mg/kg in experiment [1] and 19 mg/kg in experiment [2].
Take `O=C1OC(CO)CN1c1ccc(COc2ccccc2)cc1` (centres unmarked) [770 696]: the ED50 is 15 mg/kg in experiment [1] and 20 mg/kg in experiment [2].
As for `O=C1OC(CO)CN1c1ccc(OCC2CCC2)cc1` (centres unmarked) [770 788], the values for the ED50 in experiment [1] and in experiment [2] were 6.25 mg/kg and 12.5 mg/kg, respectively.
The like results for `N#Cc1cc(COc2ccc(N3CC(CO)OC3=O)cc2)ccc1F` (centres unmarked) [770 789] were, in that order, 3 mg/kg and 2 mg/kg.
As to `O=C1OC(CO)CN1c1ccc(OCc2ccc([N+](=O)[O-])c(Cl)c2)cc1` (centres unmarked) [770 790], the ED50 in experiment [1] amounted to 50 mg/kg; in experiment [2] it was 25 mg/kg.
As to `O=C1OC(CO)CN1c1ccc(OCc2cnccn2)cc1` (centres unmarked) [770 845], the results for the ED50 in experiment [1] and in experiment [2] were 6.25 mg/kg and 12.5 mg/kg, respectively.
In the case of `O=C1OC(CO)CN1c1ccc(OCC2CCCCO2)cc1` (centres unmarked) [770 900], the ED50 in experiment [1] was 50 mg/kg; in experiment [2], 25 mg/kg.
As to `O=C1OC(CO)CN1c1ccc(OCCC2CCCCC2)cc1` (centres unmarked) [770 949], the ED50 in experiment [1] amounted to 10 mg/kg; in experiment [2] it was 16 mg/kg.
On to `O=C1OC(CO)CN1c1ccc(OCC2OCCO2)cc1` (centres unmarked) [770 962], for which the ED50 in experiment [1] came out at 26 mg/kg; in experiment [2], 50 mg/kg.
Consider `O=C1OC(CO)CN1c1ccc(OCc2ccoc2)cc1` (centres unmarked) [770 979], for which the figures for the ED50 in experiment [1] and in experiment [2] were 14 mg/kg and 35 mg/kg, respectively.
On to `O=C1OC(CO)CN1c1ccc(OCC2=CCC=CC2)cc1` (centres unmarked) [770 984], for which the ED50 is 10 mg/kg in experiment [1] and 25 mg/kg in experiment [2].
In the same order, the values of `O=C1OC(CO)CN1c1ccc(OCc2ccsc2)cc1` (centres unmarked) [771 067] are 7.5 mg/kg and 12.5 mg/kg.
Turning to `N#Cc1cc(COc2ccc(N3CC(CO)OC3=O)cc2)cc([N+](=O)[O-])c1` (centres unmarked) [771 125], the figures for the ED50 in experiment [1] and in experiment [2] were 3.12 mg/kg and 1.56 mg/kg, respectively.
In the same order, the values of `O=C1OC(CO)CN1c1ccc(CCc2cccc(Cl)c2)cc1` (centres unmarked) [771 181] are 6.25 mg/kg and 6.25 mg/kg.
In the same order, the values of `CCC(CC)COc1ccc(N2CC(CO)OC2=O)cc1` (centres unmarked) [771 197] are 25 mg/kg and 16 mg/kg.
As to `O=C1OC(CO)CN1c1ccc(OCc2cc(Cl)cc([N+](=O)[O-])c2)cc1` (centres unmarked) [771 199], the ED50 in experiment [1] turned out to be 1.1 mg/kg; in experiment [2] it was 0.8 mg/kg.
Take `Nc1cccc(COc2ccc(N3CC(CO)OC3=O)cc2)c1` (centres unmarked) [771 240]: the results for the ED50 in experiment [1] and in experiment [2] were 35 mg/kg and 50 mg/kg, respectively.
`CC(C)(C)CCOc1ccc(N2CC(CO)OC2=O)cc1` (centres unmarked) [771 246]: the ED50 came out at 17 mg/kg in experiment [1] and 23 mg/kg in experiment [2].
Take `CC(C)(C)COc1ccc(N2CC(CO)OC2=O)cc1` (centres unmarked) [771 249]: the ED50 in experiment [1] came out at 22.5 mg/kg; in experiment [2] it was 50 mg/kg.
With `O=C1OC(CO)CN1c1ccc(COc2cccc([N+](=O)[O-])c2)cc1` (centres unmarked) [771 263, 3-para (metanitrophenoxymethyl) phenyl 5-hydroxymethyl 2-oxazolidinone], the ED50 was 4 mg/kg in experiment [1] and 3.1 mg/kg in experiment [2].
As for `O=C1OC(CO)CN1c1ccc(OCc2cccc(I)c2)cc1` (centres unmarked) [771 321], the values for the ED50 in experiment [1] and in experiment [2] were 25 mg/kg and 20 mg/kg, respectively.
In the case of `O=C1OC(CO)CN1c1ccc(OCC2CCCCCC2)cc1` (centres unmarked) [780 030], the ED50 in experiment [1] was 3 mg/kg; in experiment [2], 5.3 mg/kg.
For the compound `O=C1OC(CO)CN1c1ccc(OCC2CCCOC2)cc1` (centres unmarked) [780 034], the results for the ED50 in experiment [1] and in experiment [2] were 4.4 mg/kg and 6.2 mg/kg, respectively.
As for `CC1(COc2ccc(N3CC(CO)OC3=O)cc2)CCCC1` (centres unmarked) [780 076], the ED50 turned out to be 2.3 mg/kg in experiment [1] and 7 mg/kg in experiment [2].
In the case of `O=C1OC(CO)CN1c1ccc(OCC2SCCCS2)cc1` (centres unmarked) [780 077], the results for the ED50 in experiment [1] and in experiment [2] were 25 mg/kg and 44 mg/kg, respectively.
For the compound `O=C1OC(CO)CN1c1ccc(OCC2SCCS2)cc1` (centres unmarked) [780 080, 3-para[(1,3-dithiolan-2-yl)-methoxy]phenyl 5-hydroxymethyl 2-oxazolidinone], the ED50 in experiment [1] and in experiment [2] was 50 mg/kg throughout.
For the compound `O=C1OC(CO)CN1c1ccc(OCC2OCCS2)cc1` (centres unmarked) [780 112], the ED50 in experiment [1] stood at 5 mg/kg; in experiment [2], 5.2 mg/kg.
As for `COC(=O)Nc1ccc(COc2ccc(N3CC(CO)OC3=O)cc2)cc1` (centres unmarked) [780 182], the values for the ED50 in experiment [1] and in experiment [2] were 40 mg/kg and 25 mg/kg, respectively.
For `CCC(=O)Nc1ccc(COc2ccc(N3CC(CO)OC3=O)cc2)cc1` (centres unmarked) [780 443], the ED50 was determined as 3.7 mg/kg in experiment [1] and 12.5 mg/kg in experiment [2].
